Here are results for 2 compounds from US10253002B2, “Compounds and methods of treating infections” (Neoculi Pty Ltd., priority 2013, dated 2019).

In brackets after ≈: the same amount, converted by molar mass. Where two headings read alike, the source gives them in different places.

What is called MIC is the least concentration at which growth counts as inhibited. One may read the MIC50 as the lowest concentration that inhibits either 50% of growth or 50% of the strains tested, depending on the study. By MIC90 is commonly meant an inhibitory concentration at the 90% level, which refers to growth in some studies and to a panel of isolates in others.

For the assay, the system named is S. pneumoniae isolates. The assay can be described thus: Micro-broth dilution MIC, Example 5. Format: cell-based, Streptococcus pneumoniae. The procedure:
For all in vitro assays, fresh pneumococcal isolates were grown overnight (O/N) on horse blood agar (HBA) plates (39 g/L Columbia blood agar base [Oxoid] 5% [v/v] defribinated horse blood [Oxoid] at 37° C. with 5% supplemented CO2). Mueller-Hinton blood agar with 5% defibrinated sheep blood (MHSBA Roseworthy Media and Blood Service) was used for disk diffusion analysis as directed by Clinical Laboratory Standards Institute (CLSI) standards. Pneumococci were routinely grown in broth consisting of 4% lysed horse blood (LHB) with Cation Adjusted Mueller Hinton Broth (CAHMB, [Difco]) at 37° C. with 5% supplemented CO2. […] Isolates were stored in HSB at −80° C.
[Micro-broth dilutions and 96 well trays are prepared by the following method: 90 μL of 4% LHB:CAMHB is aliquotted into all wells using a multichannel pipette. 90 μL of working antimicrobial stocks were no serial diluted down the tray by a 1:2 dilution. Negative broth controls and dilution control were taken into account when planning the set up of a 96 well tray.] 10 μL of bacterial suspension was then added to the appropriate wells in the 96 well tray. Appropriate positive (no antimicrobial), negative (no antimicrobial or bacteria) and negative dilution (a serial dilution control of antimicrobial and broth) controls were included in each assay. […] The MBC was determined by a 99.95% inhibition of S. pneumoniae, taking into account the dilution factor. MICs and MBCs were determined in quadruplicate and the mode was taken as the representative value. The MIC50, MIC90 and MIC range and MBC50, MBC90 and MBC range were determined according to CLSI standards. The MIC50 and MIC90, or MBC50 and MBC90, are defined by the lowest concentrations which, when all the MICs and MBCs of the isolates are arranged from lowest to highest, inhibited the 50th and 90th percentile of the total amount of isolates, respectively.
In general terms: In broth dilution the organism is exposed to a series of concentrations in liquid medium.

For `CC1(C)S[C@@H]2[C@H](NC(=O)[C@H](N)c3ccccc3)C(=O)N2[C@H]1C(=O)O` [Ampicillin], the MIC by setting is: (Streptococcus pneumoniae, D39, 4% LHB:CAMHB, read-out: Relative MIC with media type for D39) 0.023 µg/mL (≈ 0.0658 µM); (Streptococcus pneumoniae, D39, 10% horse serum-supplemented broth, read-out: Relative MIC with media type for D39) 0.09 µg/mL (≈ 0.258 µM); (Streptococcus pneumoniae, isolate A66.1, Table 22, CAMHB diluent for NCL062, read-out: MIC) 0.045 µg/mL (≈ 0.129 µM); (Streptococcus pneumoniae, isolate D39, Table 22, CAMHB diluent for NCL062, read-out: MIC) 0.0225 µg/mL (≈ 0.0644 µM); (Streptococcus pneumoniae, isolate P21, Table 22, CAMHB diluent for NCL062, read-out: MIC) 0.0225 µg/mL (≈ 0.0644 µM); (Streptococcus pneumoniae, isolate WCH57, Table 22, CAMHB diluent for NCL062, read-out: MIC) 0.09 µg/mL (≈ 0.258 µM). Also, the MIC reads like this: (Streptococcus pneumoniae, isolate WCH158, Table 22, CAMHB diluent for NCL062, read-out: MIC) 0.0225 µg/mL (≈ 0.0644 µM); (Streptococcus pneumoniae, isolate WU-2, Table 22, CAMHB diluent for NCL062, read-out: MIC) 0.0225 µg/mL (≈ 0.0644 µM); (Streptococcus pneumoniae, pneumococcal isolate A66.1, read-out: MIC) 0.045 µg/mL (≈ 0.129 µM); (Streptococcus pneumoniae, pneumococcal isolate D39, read-out: MIC) 0.023 µg/mL (≈ 0.0658 µM); (Streptococcus pneumoniae, pneumococcal isolate EF3030, read-out: MIC) 0.023 µg/mL (≈ 0.0658 µM); (Streptococcus pneumoniae, pneumococcal isolate L82016, read-out: MIC) 0.023 µg/mL (≈ 0.0658 µM). For the same compound, the MIC (Streptococcus pneumoniae, pneumococcal isolate P9, read-out: MIC) was 0.023 µg/mL (≈ 0.0658 µM); the minimum inhibitory concentration (MIC) (Streptococcus pneumoniae, pneumococcal isolate P21, read-out: MIC) was 0.023 µg/mL (≈ 0.0658 µM); the MIC (Streptococcus pneumoniae, pneumococcal isolate TIGR4, read-out: MIC) stood at 0.023 µg/mL (≈ 0.0658 µM); the MIC (Streptococcus pneumoniae, pneumococcal isolate WCH16, read-out: MIC) turned out to be 0.023 µg/mL (≈ 0.0658 µM); the MIC (Streptococcus pneumoniae, pneumococcal isolate WCH43, read-out: MIC) is 0.023 µg/mL (≈ 0.0658 µM); the minimum inhibitory concentration (MIC) (Streptococcus pneumoniae, pneumococcal isolate WCH46, read-out: MIC) is 0.023 µg/mL (≈ 0.0658 µM). Besides, the MIC by setting is: (Streptococcus pneumoniae, pneumococcal isolate WCH57, read-out: MIC) 0.023 µg/mL (≈ 0.0658 µM); (Streptococcus pneumoniae, pneumococcal isolate WCH77, read-out: MIC) 0.023 µg/mL (≈ 0.0658 µM); (Streptococcus pneumoniae, pneumococcal isolate WCH86, read-out: MIC) 0.023 µg/mL (≈ 0.0658 µM); (Streptococcus pneumoniae, pneumococcal isolate WCH89, read-out: MIC) 0.023 µg/mL (≈ 0.0658 µM); (Streptococcus pneumoniae, pneumococcal isolate WCH92, read-out: MIC) 0.09 µg/mL (≈ 0.258 µM); (Streptococcus pneumoniae, pneumococcal isolate WCH137, read-out: MIC) 0.023 µg/mL (≈ 0.0658 µM). The MIC runs as follows: (Streptococcus pneumoniae, pneumococcal isolate WCH158, read-out: MIC) 0.023 µg/mL (≈ 0.0658 µM); (Streptococcus pneumoniae, pneumococcal isolate WCH184, read-out: MIC) 0.045 µg/mL (≈ 0.129 µM); (Streptococcus pneumoniae, pneumococcal isolate WCH211, read-out: MIC) 0.023 µg/mL (≈ 0.0658 µM); (Streptococcus pneumoniae, pneumococcal isolate WU2, read-out: MIC) 0.023 µg/mL (≈ 0.0658 µM). Further, for the setting “Streptococcus pneumoniae, all S. pneumoniae isolates, read-out: MIC50”, the MIC50 was 0.023 µg/mL (≈ 0.0658 µM). In addition, the MIC90 (Streptococcus pneumoniae, all S. pneumoniae isolates, read-out: MIC90) is 0.023 µg/mL (≈ 0.0658 µM). The “MIC range” value (all S. pneumoniae isolates) is 0.011 to 0.09 µg/mL.

Consider `N=C(N/N=C/c1ccc(Cl)cc1)N/N=C/c1ccc(Cl)cc1` [NCL812, 1,3-bis[(E)-(4-chlorophenyl)methyleneamino]guanidine], for which, under “Streptococcus pneumoniae, read-out: Relative MIC with media type for D39, D39, 10% horse serum-supplemented broth”, the MIC turned out to be 32 µg/mL (≈ 95.7 µM).
